Measurements published in patent US20230265104A1, “NOVEL HETEROCYCLIC COMPOUNDS” (PRISM BIOLAB CO., LTD., priority 2020, published 2023).

System: PANC-1 (human pancreatic cancer-derived cell line)
Test: MTS assay on Panc-1 (human pancreas carcinoma cell line)
Format: cell-based
Settings: 144 h; for IC50: PANC-1, MTS method, cell survival 6 days after exposure, 4-parameter logistic fit; for inhibition at 0.3125 µM: read-out: Growth inhibition (%) 0.3125 μM
Method in brief: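 Viability measured by MTS 6 days after treating human pancreatic carcinoma PANC-1 cells with compound serially diluted 2-fold in DMSO; absorbance 492–630 nm normalized to solvent control. Triplicate measurements averaged and fitted to a 4-parameter logistic curve.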

CC(C)C[C@H]1ON(C(=O)/C=C/c2nc3ccccc3s2)[C@H]2CN(C3CCN(C(C)C)CC3)C(=O)[C@H](CC(C)(C)C)N2C1=O [ID-73, (3R,6S,9aS)-1-((E)-3-(benzo[d]thiazol-2-yl)acryloyl)-3-isobutyl-8-(1-isopropylpiperidin-4-yl)-6-neopentyltetrahydropyrazino[2,1-c][1,2,4]oxadiazine-4,7(3H,6H)-dione]
IC50: 140 nM | inhibition at 0.3125 µM (PANC-1, MTS, 6 days): 88.1%

CC(C)C[C@H]1ON(C(=O)/C=C/c2nc3ccccc3s2)[C@H]2CN(C3CCN(C)CC3)C(=O)[C@H](CCS(C)(=O)=O)N2C1=O [ID-74, (3R,6S,9aS)-1-((E)-3-(benzo[d]thiazol-2-yl)acryloyl)-3-isobutyl-8-(1-methylpiperidin-4-yl)-6-(2-(methylsulfonyl)ethyl)tetrahydropyrazino[2,1-c][1,2,4]oxadiazine-4,7(3H,6H)-dione]
inhibition at 0.3125 µM (PANC-1, MTS, 6 days): 38.7%

CC(C)C[C@H]1ON(C(=O)/C=C/c2nc3ccccc3s2)[C@H]2CN(C3CCN(CCCN)CC3)C(=O)[C@H](CC(C)(C)C)N2C1=O [ID-75, (3R,6S,9aS)-8-(1-(3-aminopropyl)piperidin-4-yl)-1-((E)-3-(benzo[d]thiazol-2-yl)acryloyl)-3-isobutyl-6-neopentyltetrahydropyrazino[2,1-c][1,2,4]oxadiazine-4,7(3H,6H)-dione]
IC50: 390 nM | inhibition at 0.3125 µM (PANC-1, MTS, 6 days): 19.9%

CC(C)C[C@H]1ON(C(=O)/C=C/c2nc3ccccc3s2)[C@H]2CN(C3CCN(CCCC(=O)O)CC3)C(=O)[C@H](CC(C)(C)C)N2C1=O [ID-76, 4-(4-((3R,6S,9aS)-1-((E)-3-(benzo[d]thiazol-2-yl)acryloyl)-3-isobutyl-6-neopentyl-4,7-dioxohexahydropyrazino[2,1-c][1,2,4]oxadiazin-8 (1H)-yl)piperidin-1-yl)butanoic acid]
IC50: 1600 nM

CC(C)C[C@H]1ON(C(=O)/C=C/c2nc3ccccc3s2)[C@H]2CN(C3CCN(CCOCCO)CC3)C(=O)[C@H](CC(C)(C)C)N2C1=O [ID-77, (3R,6S,9aS)-1-((E)-3-(benzo[d]thiazol-2-yl)acryloyl)-8-(1-(2-(2-hydroxyethoxy)ethyl)piperidin-4-yl)-3-isobutyl-6-neopentyltetrahydropyrazino[2,1-c][1,2,4]oxadiazine-4,7(3H,6H)-dione]
inhibition at 0.3125 µM (PANC-1, MTS, 6 days): 55.2%

CSc1nccc(/C=C/C(=O)N2O[C@H](CC(C)C)C(=O)N3[C@@H]2CN([C@H]2CCN(CCCCO)C2)C(=O)[C@@H]3CC(C)(C)C)n1 [ID-78, (3R,6S,9aS)-8-((S)-1-(4-hydroxybutyl)pyrrolidin-3-yl)-3-isobutyl-1-((E)-3-(2-(methylthio)pyrimidin-4-yl)acryloyl)-6-neopentyltetrahydropyrazino[2,1-c][1,2,4]oxadiazine-4,7(3H,6H)-dione]
inhibition at 0.3125 µM (PANC-1, MTS, 6 days): 41.5%

CC(C)C[C@H]1ON(C(=O)/C=C/c2nc3ccccc3s2)[C@H]2CN(C3CCN(CCCO)CC3)C(=O)[C@H](CC(C)(C)C)N2C1=O [ID-79, (3R,6S,9aS)-1-((E)-3-(benzo[d]thiazol-2-yl)acryloyl)-8-(1-(3-hydroxypropyl)piperidin-4-yl)-3-isobutyl-6-neopentyltetrahydropyrazino[2,1-c][1,2,4]oxadiazine-4,7(3H,6H)-dione]
inhibition at 0.3125 µM (PANC-1, MTS, 6 days): 72.2%

CC(C)C[C@H]1ON(C(=O)/C=C/c2ccc(-c3cccc(O)c3)cn2)[C@H]2CN(C3CCN(CCCCO)CC3)C(=O)[C@H](CC(C)(C)C)N2C1=O [ID-80, (3R,6S,9aS)-8-(1-(4-hydroxybutyl)piperidin-4-yl)-1-((E)-3-(5-(3-hydroxyphenyl)pyridin-2-yl)acryloyl)-3-isobutyl-6-neopentyltetrahydropyrazino[2,1-c][1,2,4]oxadiazine-4,7(3H,6H)-dione]
inhibition at 0.625 µM (PANC-1, MTS, 6 days, 0.625 μM, read-out: Growth inhibition (%) 0.625 μM): 63.2%

C#Cc1csc(/C=C/C(=O)N2O[C@H](CC(C)C)C(=O)N3[C@@H]2CN([C@H]2CCN(CCCCO)C2)C(=O)[C@@H]3CC(C)(C)C)n1 [ID-81, (3R,6S,9aS)-1-((E)-3-(4-ethynylthiazol-2-yl)acryloyl)-8-((S)-1-(4-hydroxybutyl)pyrrolidin-3-yl)-3-isobutyl-6-neopentyltetrahydropyrazino[2,1-c][1,2,4]oxadiazine-4,7(3H,6H)-dione]
inhibition at 0.3125 µM (PANC-1, MTS, 6 days): 69.6%

CC(C)C[C@H]1ON(C(=O)/C=C/c2nc(-c3cccnc3)cs2)[C@H]2CN([C@H]3CCN(CCCCO)C3)C(=O)[C@H](CC(C)(C)C)N2C1=O [ID-82, (3R,6S,9aS)-8-((S)-1-(4-hydroxybutyl)pyrrolidin-3-yl)-3-isobutyl-6-neopentyl-1-((E)-3-(4-(pyridin-3-yl)thiazol-2-yl)acryloyl)tetrahydropyrazino[2,1-c][1,2,4]oxadiazine-4,7 (3H, 6H)-dione]
inhibition at 0.3125 µM (PANC-1, MTS, 6 days): 48.6%

CC(C)C[C@H]1ON(C(=O)/C=C/c2nc3ccccc3s2)[C@H]2CN(C3CCN(CCC(CO)CO)CC3)C(=O)[C@H](CC(C)(C)C)N2C1=O [ID-83, (3R,6S,9aS)-1-((E)-3-(benzo[d]thiazol-2-yl)acryloyl)-8-(1-(4-hydroxy-3-(hydroxymethyl)butyl)piperidin-4-yl)-3-isobutyl-6-neopentyltetrahydropyrazino[2,1-c][1,2,4]oxadiazine-4,7(3H,6H)-dione]
inhibition at 0.3125 µM (PANC-1, MTS, 6 days): 46.5%

CC(C)C[C@H]1ON(C(=O)/C=C/c2nc3ccccc3s2)[C@H]2CN(C3CN(CCCCO)C3)C(=O)[C@H](CC(C)(C)C)N2C1=O [ID-84, (3R,6S,9aS)-1-((E)-3-(benzo[d]thiazol-2-yl)acryloyl)-8-(1-(4-hydroxybutyl)azetidin-3-yl)-3-isobutyl-6-neopentyltetrahydropyrazino[2,1-c][1,2,4]oxadiazine-4,7(3H,6H)-dione]
IC50: 110 nM | inhibition at 0.3125 µM (PANC-1, MTS, 6 days): 88.9%

CC(C)C[C@H]1ON(C(=O)/C=C/c2nc3c(O)cccc3s2)[C@H]2CN([C@H]3CCN(CCCCO)C3)C(=O)[C@H](CC(C)(C)C)N2C1=O [ID-85, (3R,6S,9aS)-1-((E)-3-(4-hydroxybenzo[d]thiazol-2-yl)acryloyl)-8-((S)-1-(4-hydroxybutyl)pyrrolidin-3-yl)-3-isobutyl-6-neopentyltetrahydropyrazino[2,1-c][1,2,4]oxadiazine-4,7(3H,6H)-dione]
IC50: 110 nM | inhibition at 0.15625 µM (PANC-1, MTS, 6 days, 0.15625 μM, read-out: Growth inhibition (%) 0.15625 μM): 58.9%

CC(C)C[C@@H]1C(=O)N2[C@H](CN(C3CCN(C)CC3)C(=O)[C@@H]2Cc2ccccc2)N1C(=O)/C=C/c1nc2ccccc2s1 [ID-86, (2R,5S,8aR)-1-((E)-3-(benzo[d]thiazol-2-yl)acryloyl)-5-benzyl-2-isobutyl-7-(1-methylpiperidin-4-yl)tetrahydroimidazo[1,2-a]pyrazine-3,6(2H,5H)-dione]
inhibition at 1.25 µM (PANC-1, MTS, 6 days, 1.25 μM, read-out: Growth inhibition (%) 1.25 μM): 50%

CC(C)C[C@H]1ON(C(=O)/C=C/c2nc(C#CC3(N)CC3)cs2)[C@H]2CN([C@H]3CCN(CCCCO)C3)C(=O)[C@H](CC(C)(C)C)N2C1=O [ID-87, (3R, 6S, 9aS)-1-((E)-3-(4-((1-aminocyclopropyl)ethynyl)thiazol-2-yl)acryloyl)-8-((S)-1-(4-hydroxybutyl)pyrrolidin-3-yl)-3-isobutyl-6-neopentyltetrahydropyrazino[2,1-c][1,2,4]oxadiazine-4,7(3H,6H)-dione]
inhibition at 0.3125 µM (PANC-1, MTS, 6 days): 54.5%

CC(C)C[C@H]1ON(C(=O)/C=C/c2nc(C#CCN(C)C)cs2)[C@H]2CN([C@H]3CCN(CCCCO)C3)C(=O)[C@H](CC(C)(C)C)N2C1=O [ID-88, (3R,6S,9aS)-1-((E)-3-(4-(3-(dimethylamino)prop-1-yn-1-yl)thiazol-2-yl)acryloyl)-8-((S)-1-(4-hydroxybutyl)pyrrolidin-3-yl)-3-isobutyl-6-neopentyltetrahydropyrazino[2,1-c][1,2,4]oxadiazine-4,7(3H,6H)-dione]
inhibition at 0.3125 µM (PANC-1, MTS, 6 days): 38%

C#Cc1cnc(/C=C/C(=O)N2O[C@H](CC(C)C)C(=O)N3[C@@H]2CN([C@H]2CCN(CCCCO)C2)C(=O)[C@@H]3CC(C)(C)C)s1 [ID-89, (3R,6S,9aS)-1-((E)-3-(5-ethynylthiazol-2-yl)acryloyl)-8-((S)-1-(4-hydroxybutyl)pyrrolidin-3-yl)-3-isobutyl-6-neopentyltetrahydropyrazino[2,1-c][1,2,4]oxadiazine-4,7(3H,6H)-dione]
IC50: 180 nM | inhibition at 0.3125 µM (PANC-1, MTS, 6 days): 100%

CC(C)(C)C[C@H]1C(=O)N([C@@H]2CCN(CCCCO)C2)C[C@@H]2N(C(=O)/C=C/c3cnc4ccccc4n3)O[C@H](CC3CCCCC3)C(=O)N21 [ID-90, (3R, 6S, 9aS)-3-(cyclohexylmethyl)-8-((R)-1-(4-hydroxybutyl)pyrrolidin-3-yl)-6-neopentyl-1-((E)-3-(quinoxalin-2-yl)acryloyl)tetrahydropyrazino[2,1-c][1,2,4]oxadiazine-4,7(3H,6H)-dione]
IC50: 210 nM | inhibition at 0.3125 µM (PANC-1, MTS, 6 days): 66% | inhibition at 1 µM (PANC-1, MTS, 6 days, 1 μM, read-out: Growth inhibition (%) 1 μM): 99%

CC(C)C[C@H]1ON(C(=O)/C=C/c2nc(C#CCCCCCO)cs2)[C@H]2CN(C3CN(CCCCO)C3)C(=O)[C@H](CC(C)(C)C)N2C1=O [ID-91, (3R,6S,9aS)-8-(1-(4-hydroxybutyl)azetidin-3-yl)-1-((E)-3-(4-(7-hydroxyhept-1-yn-1-yl)thiazol-2-yl)acryloyl)-3-isobutyl-6-neopentyltetrahydropyrazino[2,1-c][1,2,4]oxadiazine-4,7(3H,6H)-dione]
IC50: 120 nM

CC(C)C[C@H]1ON(C(=O)/C=C/c2nc(C#CCCCCO)cs2)[C@H]2CN(C3CN(CCCCO)C3)C(=O)[C@H](CC(C)(C)C)N2C1=O [ID-92, (3R,6S,9aS)-8-(1-(4-hydroxybutyl)azetidin-3-yl)-1-((E)-3-(4-(6-hydroxyhex-1-yn-1-yl)thiazol-2-yl)acryloyl)-3-isobutyl-6-neopentyltetrahydropyrazino[2,1-c][1,2,4]oxadiazine-4,7(3H,6H)-dione]
IC50: 120 nM
